Data on 13 compounds can be found in patent US20090192147A1, “[a]-FUSED INDOLE COMPOUNDS, THEIR USE AS mTOR KINASE AND PI3 KINASE INHIBITORS, AND THEIR [sequence]” (Wyeth, priority 2008, published 2009).

One assay concerns the target T1, human TOR (FLAG-TOR) (Homo sapiens, UniProt P42345).
T1 construct: FLAG
The experiment in a line: mTOR kinase assay, purified enzyme, DELFIA format. The assay is classed as biochemical. To be noted: 100 μM ATP, His6-S6K substrate.

The next assay concerns the target PI3K-alpha (Homo sapiens, UniProt P42336). Briefly: Fluorescence polarization assay for PI3K. The assay is classed as biochemical. To be noted: 25 μM ATP, diC8-PI(4,5)P2 substrate; read-out: PI3 Kinase α IC50. How it is done:
(§1) Fluorescence Polarization Assay for PI3K
(§2) Reaction Buffer: 20 mM HEPES, pH 7.5, 2 mM MgCl2, 0.05% CHAPS; and 0.01% BME (added fresh) Stop/Detection Buffer: 100 mM HEPES, pH 7.5, 4 mM EDTA, 0.05% CHAPS; ATP 20 mM in water; PIP2 (diC8, Echelon, Salt Lake City Utah, cat# P-4508) 1 mM in water (MW=856.5); GST-GRP 1.75 mg/mL or 1.4 mg/mL in 10% glycerol; Red detector (TAMRA) 2.5 μM; Plate: Nunc 384 well black polypropylene fluorescence plate.
(§3) PI3-Kinase reactions were performed in […], pH 7, […], and 25 μM ATP, with diC8-PI(4,5)P2 (Echelon, Salt Lake City Utah) as substrate. Nunc 384 well black polypropylene fluorescent plates were used for PI3K assays. Reactions were quenched by the addition of EDTA to a final concentration of […]. Final reaction volumes were 10 μl. For evaluation of PI3K inhibitors, 5 ng of enzyme (PI3K-alpha, beta, gamma, or delta) and 2.5 μM of substrate was used per […] reaction volume, and inhibitor concentrations ranged from 100 pM to 20 μM; the final level of DMSO in reactions never exceeded 2%. Reactions were allowed to proceed for one hour at 25° C. After 1 hour, GST-tagged GRP1 (general receptor for phosphoinositides) PH domain fusion protein was added to a final concentration of 100 nM, and BODIPY-TMRI(1,3,4,5)P4 (Echelon) was also added to a final concentration of 5 nM. Final sample volumes were 25 μl with a final DMSO concentration of 0.8%. Assay Plates were read on PerkinElmer Envision plate readers with appropriate filters for Tamra [BODIPY-TMRI(1,3,4,5)P4]. Data obtained were used to calculate enzymatic activity and enzyme inhibition by inhibitor compounds.

The next assay concerns the target PI3K-gamma (Homo sapiens, UniProt P48736). The experiment in a line: Fluorescence polarization assay for PI3K. It is filed as biochemical. The settings on record: 25 μM ATP, diC8-PI(4,5)P2 substrate; read-out: PI3 Kinase γ IC50. How it is done: as §1, §2, §3
For orientation: Polarisation of emitted light reports the rotation of a fluorescent probe.

The subject of the next assay is PC3-MM2 cells. The experiment in a line: In vitro cell culture growth assay (MTS). The assay is classed as cell-based. The settings on record: Homo sapiens, PC3MM2, 72 h, growth inhibition, three days after drug treatment. How it is done: (§4) Cell lines used were human adenocarcinoma (LoVo), pancreatic […], prostate (LNCap), breast (MDA468, MCF7), colon (HCT116), renal (HTB44 A498), and ovarian (OVCAR3) tumor cell lines. The tumor cells were plated in 96-well culture plates at approximately 3000 cells per well. One day following plating, various concentrations of PI3K inhibitors in DMSO were added to cells (final DMSO concentration in cell assays was 0.25%). Three days after drug treatment, viable cell densities were determined by cell mediated metabolic conversion of the dye MTS, a well-established indicator of cell proliferation in vitro. Cell growth assays were performed using kits purchased from Promega Corporation (Madison, Wis.), following the protocol provided by the vendor. Measuring absorbance at 490 nm generated the MTS assay results. Compound effect on cell proliferation was assessed relative to untreated control cell growth.

The subject of assay [1] is human tumor xenograft models. The settings on record: cited from earlier work.
For assay [2], the system named is OVCAR3 ovarian tumor cell line. Briefly: In vitro cell culture growth assay (MTS). The assay is classed as cell-based. The settings on record: Homo sapiens, OVCAR-3, 72 h, growth inhibition, three days after drug treatment. How it is done:
as §4

Assay [3] has as its system acute lymphoblastic leukemia. To be noted: NOS/SCID mouse; cited from earlier work.
A further assay addresses mTOR enzymes (Homo sapiens, UniProt P42345). To be noted: read-out: mTOR enzymes IC50; literature value; cited from earlier work.

Where two headings read alike, the source gives them in different places.

PI3K-alpha, sequence (P42336 whole entry, species assumed): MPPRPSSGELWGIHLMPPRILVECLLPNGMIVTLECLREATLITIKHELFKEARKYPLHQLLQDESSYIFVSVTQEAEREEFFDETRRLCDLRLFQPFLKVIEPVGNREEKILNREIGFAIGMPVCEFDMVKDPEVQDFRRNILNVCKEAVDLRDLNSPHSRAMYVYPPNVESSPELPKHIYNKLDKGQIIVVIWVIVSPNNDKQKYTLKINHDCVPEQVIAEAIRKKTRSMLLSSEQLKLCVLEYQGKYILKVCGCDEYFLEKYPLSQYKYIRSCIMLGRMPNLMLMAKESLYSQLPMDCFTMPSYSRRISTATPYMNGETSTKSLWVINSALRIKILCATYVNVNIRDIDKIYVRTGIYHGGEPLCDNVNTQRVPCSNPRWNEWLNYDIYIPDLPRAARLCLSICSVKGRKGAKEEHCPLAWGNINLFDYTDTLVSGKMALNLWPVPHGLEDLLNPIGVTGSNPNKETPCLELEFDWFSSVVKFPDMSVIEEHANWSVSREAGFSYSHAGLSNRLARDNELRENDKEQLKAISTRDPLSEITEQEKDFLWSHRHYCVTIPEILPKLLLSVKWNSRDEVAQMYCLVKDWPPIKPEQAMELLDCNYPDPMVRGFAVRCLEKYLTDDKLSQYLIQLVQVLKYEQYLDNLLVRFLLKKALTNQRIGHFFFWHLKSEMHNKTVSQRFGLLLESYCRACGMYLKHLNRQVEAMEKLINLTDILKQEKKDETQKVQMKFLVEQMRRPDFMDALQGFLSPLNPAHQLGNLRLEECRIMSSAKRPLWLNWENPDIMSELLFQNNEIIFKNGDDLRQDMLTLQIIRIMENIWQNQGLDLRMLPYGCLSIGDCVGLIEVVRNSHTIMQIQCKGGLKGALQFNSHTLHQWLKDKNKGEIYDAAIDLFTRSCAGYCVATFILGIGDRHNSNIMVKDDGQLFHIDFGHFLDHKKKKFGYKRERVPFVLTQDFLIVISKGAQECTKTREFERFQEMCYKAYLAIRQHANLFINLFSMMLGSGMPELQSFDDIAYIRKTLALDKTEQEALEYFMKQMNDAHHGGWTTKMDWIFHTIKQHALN
PI3K-alpha, sequence (P27986 whole entry partner, species assumed): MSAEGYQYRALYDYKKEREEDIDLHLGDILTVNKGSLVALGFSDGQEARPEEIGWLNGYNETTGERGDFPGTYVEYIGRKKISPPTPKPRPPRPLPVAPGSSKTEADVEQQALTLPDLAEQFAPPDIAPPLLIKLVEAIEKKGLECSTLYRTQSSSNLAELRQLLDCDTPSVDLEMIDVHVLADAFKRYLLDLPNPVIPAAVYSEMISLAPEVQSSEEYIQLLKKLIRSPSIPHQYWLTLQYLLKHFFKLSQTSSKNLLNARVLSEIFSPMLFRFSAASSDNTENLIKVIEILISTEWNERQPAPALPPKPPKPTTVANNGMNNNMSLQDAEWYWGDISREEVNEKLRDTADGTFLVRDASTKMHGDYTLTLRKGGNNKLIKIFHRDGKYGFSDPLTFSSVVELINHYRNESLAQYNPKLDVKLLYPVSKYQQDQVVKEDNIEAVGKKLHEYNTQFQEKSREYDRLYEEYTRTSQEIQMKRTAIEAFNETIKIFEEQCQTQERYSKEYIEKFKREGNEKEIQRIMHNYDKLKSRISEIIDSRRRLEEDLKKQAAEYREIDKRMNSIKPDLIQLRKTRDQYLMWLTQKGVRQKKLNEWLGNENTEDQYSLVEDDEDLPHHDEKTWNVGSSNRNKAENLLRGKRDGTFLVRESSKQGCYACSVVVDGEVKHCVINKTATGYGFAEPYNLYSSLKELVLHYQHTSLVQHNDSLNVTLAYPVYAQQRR
PI3K-gamma, sequence (P48736 whole entry): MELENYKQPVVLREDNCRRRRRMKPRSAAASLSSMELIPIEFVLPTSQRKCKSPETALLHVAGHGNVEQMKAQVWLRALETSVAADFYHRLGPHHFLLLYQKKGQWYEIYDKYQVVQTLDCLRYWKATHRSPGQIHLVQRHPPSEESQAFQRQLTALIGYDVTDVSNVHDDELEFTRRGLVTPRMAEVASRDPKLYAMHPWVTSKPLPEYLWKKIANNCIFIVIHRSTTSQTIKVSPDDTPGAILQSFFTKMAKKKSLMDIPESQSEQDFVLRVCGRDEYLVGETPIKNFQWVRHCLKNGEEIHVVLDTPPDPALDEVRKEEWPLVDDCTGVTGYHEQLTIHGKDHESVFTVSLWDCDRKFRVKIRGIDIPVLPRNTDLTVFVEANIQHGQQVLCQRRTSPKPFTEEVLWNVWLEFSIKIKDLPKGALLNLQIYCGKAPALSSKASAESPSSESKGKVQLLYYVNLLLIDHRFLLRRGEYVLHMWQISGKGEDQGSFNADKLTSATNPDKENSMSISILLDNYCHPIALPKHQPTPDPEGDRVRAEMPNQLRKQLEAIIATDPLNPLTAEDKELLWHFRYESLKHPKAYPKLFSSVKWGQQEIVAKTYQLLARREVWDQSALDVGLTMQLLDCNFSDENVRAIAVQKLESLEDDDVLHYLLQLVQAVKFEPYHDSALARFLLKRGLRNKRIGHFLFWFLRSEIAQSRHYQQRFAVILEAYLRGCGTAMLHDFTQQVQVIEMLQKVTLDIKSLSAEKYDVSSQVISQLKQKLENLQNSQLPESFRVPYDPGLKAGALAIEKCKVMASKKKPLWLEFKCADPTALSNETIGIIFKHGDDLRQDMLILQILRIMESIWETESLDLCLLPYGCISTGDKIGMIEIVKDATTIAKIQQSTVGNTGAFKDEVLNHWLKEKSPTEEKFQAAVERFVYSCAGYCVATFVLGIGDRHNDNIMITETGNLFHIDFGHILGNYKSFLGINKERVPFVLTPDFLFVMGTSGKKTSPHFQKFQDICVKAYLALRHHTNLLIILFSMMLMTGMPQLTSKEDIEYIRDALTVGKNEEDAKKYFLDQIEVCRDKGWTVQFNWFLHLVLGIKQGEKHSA

The term IC50 denotes the concentration that inhibits the measured activity by half. For the compound `COc1ccc2c(c1)c(/C=C1\Oc3cc(O)cc(O)c3C1=O)c1n2CCOC1=O` [Example I, 10-[(Z)-(4,6-dihydroxy-3-oxo-1-benzofuran-2(3H)-ylidene)methyl]-8-methoxy-3,4-dihydro-1H-[1,4]oxazino[4,3-a]indol-1-one], the IC50 against human TOR (FLAG-TOR) was found to be 24 nM; at PI3K-alpha, 1.1 nM; on PI3K-gamma, 9 nM; with PC3-MM2 cells, 5630 nM.

For the compound `Oc1cccc(-c2nc(N3CCOCC3)c3oc4ncccc4c3n2)c1` [Example P1103, 3-(4-(4-morpholinyl)pyrido[3′,2′:4,5]furo[3,2-d]pyrimidin-2-yl)phenol], in assay [1] (I.P. dosing in mice, U87MG, PC3, MDA-MB-468, MDA-MB-435, HCT 116, SKOV3, IGROV-1), the “activity in human tumor xenograft models” value is “demonstrated activity”.

For the compound `COc1ccc2c(c1)c(/C=C1\Oc3cc(O)ccc3C1=O)c1n2CCOC1=O` [J, 10-[(Z)-(6-hydroxy-3-oxo-1-benzofuran-2(3H)-ylidene)methyl]-8-methoxy-3,4-dihydro-1H-[1,4]oxazino[4,3-a]indol-1-one], the IC50 at human TOR (FLAG-TOR) is 114 nM; at PI3K-alpha it was 21.5 nM; at PI3K-gamma it was 76.5 nM; in the assay on PC3-MM2 cells it was over 10000 nM; in assay [2], 5280 nM.

Turning to `COc1ccc2c(c1)c(/C=C1\Oc3cc(O)cc(O)c3C1=O)c1n2CCNC1` [K, (2Z)-4,6-dihydroxy-2-[(8-methoxy-1,2,3,4-tetrahydropyrazino[1,2-a]indol-10-yl)methylene]-1-benzofuran-3(2H)-one], the IC50 on human TOR (FLAG-TOR) was determined as 9 nM; on PI3K-alpha, 5.5 nM; at PI3K-gamma, 116 nM; with PC3-MM2 cells it was 2190 nM; in assay [2], 1620 nM.

As for `COc1ccc2c(c1)c(/C=C1\Oc3cc(O)ccc3C1=O)c1n2CCNC1` [L, (2Z)-6-hydroxy-2-[(8-methoxy-1,2,3,4-tetrahydropyrazino[1,2-a]indol-10-yl)methylene]-1-benzofuran-3(2H)-one], the IC50 turned out to be 320 nM against human TOR (FLAG-TOR); 16.5 nM on PI3K-alpha; 116 nM on PI3K-gamma; 1510 nM with PC3-MM2 cells; 780 nM in assay [2].

For the compound `COc1ccc2c(c1)c(/C=C1\Oc3cc(O)cc(O)c3C1=O)c1n2CCOC1` [M, (2Z)-4,6-dihydroxy-2-[(8-methoxy-3,4-dihydro-1H-[1,4]oxazino[4,3-a]indol-10-yl)methylene]-1-benzofuran-3(2H)-one], the IC50 is under 32 nM on human TOR (FLAG-TOR); 4.5 nM at PI3K-alpha; 57 nM at PI3K-gamma; 1910 nM in the assay with PC3-MM2 cells; 1000 nM in assay [2].

In the case of `COc1ccc2c(c1)c(/C=C1\Oc3cc(O)cc(O)c3C1=O)c1n2CCNC1=O` [N, 10-[(Z)-(4,6-dihydroxy-3-oxo-1-benzofuran-2(3H)-ylidene)methyl]-8-methoxy-3,4-dihydropyrazino[1,2-a]indol-1(2H)-one], the IC50 against human TOR (FLAG-TOR) is under 32 nM; on PI3K-alpha, 2.5 nM; at PI3K-gamma it was 24.5 nM; in the assay on PC3-MM2 cells, over 10000 nM; in assay [2], 4950 nM.

For `Cn1c(=O)n(-c2ccc(C(C)(C)C#N)cc2)c2c3cc(-c4cnc5ccccc5c4)ccc3ncc21` [NVP-BEZ-235, 2-methyl-2-(4-(3-methyl-2-oxo-8-(quinolin-3-yl)-2,3-dihydro-1H-imidazo[4,5-c]quinolin-1-yl)phenyl)propanenitrile], the “activity in human tumor xenograft models” value in assay [1] (prostrate (PC-3) and glioblastoma (U-87)) is listed as “demonstrated activity”.

For `COc1ccc2c(c1)c(/C=C1\Oc3cc(O)ccc3C1=O)c1n2CCC1` [O, (2Z)-6-hydroxy-2-[(7-methoxy-2,3-dihydro-1H-pyrrolo[1,2-a]indol-9-yl)methylene]-1-benzofuran-3(2H)-one], the IC50 on human TOR (FLAG-TOR) came to 66 nM; on PI3K-alpha, 14 nM; at PI3K-gamma, 76 nM; with PC3-MM2 cells, 3400 nM; in assay [2], 3720 nM.

In the case of `COc1ccc2c(c1)c(/C=C1\Oc3cc(O)cc(O)c3C1=O)c1n2CCN(C)C1` [P, (2Z)-4,6-dihydroxy-2-[(8-methoxy-2-methyl-1,2,3,4-tetrahydropyrazino[1,2-a]indol-10-yl)methylene]-1-benzofuran-3(2H)-one], the IC50 on human TOR (FLAG-TOR) worked out at 9 nM; at PI3K-alpha it was 6 nM; on PI3K-gamma, 30.5 nM; in the assay on PC3-MM2 cells, 1610 nM; in assay [2], 1670 nM.

In the case of `COc1ccc2c(c1)c(/C=C1\Oc3cc(O)cc(O)c3C1=O)c1n2CCN(C)C1=O` [Q, 10-[(Z)-(4,6-dihydroxy-3-oxo-1-benzofuran-2(3H)-ylidene)methyl]-8-methoxy-2-methyl-3,4-dihydropyrazino[1,2-a]indol-1(2H)-one], the IC50 was found to be 4 nM on human TOR (FLAG-TOR); 3 nM on PI3K-alpha; 27 nM at PI3K-gamma; 5050 nM in the assay on PC3-MM2 cells; 3600 nM in assay [2].

As to `CO[C@H]1C[C@@H]2CC[C@@H](C)[C@@](O)(O2)C(=O)C(=O)N2CCCC[C@H]2C(=O)O[C@H]([C@H](C)C[C@@H]2CC[C@@H](OC(=O)C(C)(CO)CO)[C@H](OC)C2)CC(=O)[C@H](C)/C=C(\C)[C@@H](O)[C@@H](OC)C(=O)[C@H](C)C[C@H](C)/C=C/C=C/C=C/1C` [Torisel], the “activity in xenograft mouse model of acute lymphoblastic leukemia” value in assay [3] was “active”.

As for `FC(F)c1nc2ccccc2n1-c1nc(N2CCOCC2)nc(N2CCOCC2)n1` [ZSTK474, 2-(2-difluoromethylbenzoimidazol-1-yl)-4,6-dimorpholino-1,3,5-triazine], the IC50 at mTOR enzymes is over 10000 nM. In addition, the “tumor growth in mouse human xenograft cancer models” value in assay [1] (chronic oral administration, 400 mg/kg, A549, PC-3, WiDr) is “completely inhibited growth”.
